Source: patent publication US8278436B2, “Glycosylated warfarin analogs and uses thereof” (priority 2008, dated 2012)
Where two headings read alike, the source gives them in different places.

How the values were obtained:
Format in all cases: cell-based
[1] = system: HCT-15 human colorectal adenocarcinoma cells; test: cell proliferation assay, HCT-15; conditions: for IC50: Table 3 summary of most active compounds, read-out: HCT15 Colorectal
From the text: (§1) In this Example, the warfarin neoglycosides of the invention were screened for anti-tumor activity in cell proliferation assays using the following tumor cells lines: A549—human lung adenocarcinoma; H1299—human lung adenocarcinoma (p53 null); HCT-15—human colorectal adenocarcinoma; HT-29—human colorectal adenocarcinoma; MCF7—human breast adenocarcinoma; NCI-H460—human lung adenocarcinoma; SF-268—human CNS adenocarcinoma; and SKOV-3—human ovarian adenocarcinoma.
(§2) All cell lines were maintained as previously reported (see Langenhan, J. M.; Peters, N. R.; Guzei, I. A.; Hoffmann, F. M.; Thorson, J. S. Proc. Natl. Acad. Sci. USA 2005, 102, 12305-12310, which is incorporated by reference herein). Cells were harvested using 0.25% trypsin and 0.1% EDTA and counted in a Cellometer Auto T4 cell counter (Nexcelom, Inc.) prior to dilution for assay plating. Cells were plated at a denity of 500 cells per well in 50 μL volumes in 384-well clear-bottom tissue culture plates (Corning-Costar, Inc.).
(§3) Compounds were added from the 384-well compound stock plates at a 1:100 dilution using a Biomek FX liquid handler equipped with a 384-channel head (Beckman Coulter, Inc.). The plates were incubated for 7 days at 37° C. in a 5% CO2 atmosphere prior to performing the assays. Calcein AM (acetoxymethyl ester) reagent and EthD-1 (30 μL, 10 μM CAM and 100 μM EthD-1) was added and the cells were incubated for 30 min at 37° C. […] resulting from incubation with Calcein AM and EthD-1 was read using a Safire-2 microplate reader at the appropriate wavelengths. To lyse the cells, 15 μL of CellTiter-Glo reagent (Promega Corporation, Inc.) was added and the cells were incubated for 10 min at room temperature with gentle agitation. The luminescence of each plate was re-read to confirm the observed inhibition.
(§4) IC50s for cell proliferation assays were determined for Calcein AM, the ratio of live/dead cells (Calcein AM/EthD-1), and CellTiter-Glo using XLfit 4.0 as previously described (see Langenhan, J. M.; Peters, N. R.; Guzei, I. A.; Hoffmann, F. M.; Thorson, J. S. Proc. Natl. Acad. Sci. USA 2005, 102, 12305-12310, which is incorporated by reference herein). The IC50 determined using the best fit curve for dosage response from any of the 3 assays is reported as the final IC50. The best fit curve is defined as the curve with the lowest standard error.

[2] = system: SKOV-3 human ovarian adenocarcinoma cells; test: cell proliferation assay, SKOV-3; conditions: read-out: SKOV3 Ovarian
From the text: as §1, §2, §3, §4

[3] = system: HT-29 human colorectal adenocarcinoma cells; test: cell proliferation assay, HT-29
From the text: as §1, §2, §3, §4

[4] = system: NCI-H460 human lung adenocarcinoma cells; test: cell proliferation assay, NCI-H460
From the text: as §1, §2, §3, §4

[5] = system: A549 human lung adenocarcinoma cells; test: cell proliferation assay, A549; conditions: read-out: A549 Lung (+p53)
From the text: as §1, §2, §3, §4

[6] = system: H1299 human lung adenocarcinoma (p53 null) cells; test: cell proliferation assay, H1299; conditions: Table 3 summary of most active compounds
From the text: as §1, §2, §3
as §4, with “IC50.” for “IC50. The best fit curve is defined as the curve with the lowest standard error.”

NCI/ADR-RES = test: cell proliferation assay, NCI/ADR-RES; conditions: Table 3 summary of most active compounds
Description: as §2, §3
as §4, with “IC50.” for “IC50. The best fit curve is defined as the curve with the lowest standard error.”

[7] = system: MCF7 human breast adenocarcinoma cells; test: cell proliferation assay, MCF7
From the text: as §1, §2, §3
as §4, with “IC50.” for “IC50. The best fit curve is defined as the curve with the lowest standard error.”

[8] = system: SF-268 human CNS adenocarcinoma cells; test: cell proliferation assay, SF-268
From the text: as §1, §2, §3
as §4, with “IC50.” for “IC50. The best fit curve is defined as the curve with the lowest standard error.”

[9] = Table 3 summary of most active compounds, listed as L-xylose
[10] = Table 3 summary of most active compounds, listed as D-lyxose
[11] = Table 3 summary of most active compounds, listed as D-xylose
[12] = Table 3 summary of most active compounds, IC50, read-out: SF268 Giloblast
[13] = Table 3 summary of most active compounds
[14] = Table 3 summary of most active compounds, IC50, read-out: H729 Colorectal
[15] = Table 3 summary of most active compounds, listed as L-arabinose
[16] = Table 3 summary of most active compounds, listed as D-ribose
[17] = Table 3 summary of most active compounds, listed as L-ribose

CON(C(C)CC(c1ccccc1)c1c(O)c2ccccc2oc1=O)C1OCC(O)C(O)C1O (mixture of isomers) [WARF Analog 1]
IC50 ([1]; listed as L-xylose): 14 µM
IC50 [2, 9]: 45 µM
IC50 ([3]; Table 3 summary of most active compounds, IC50, listed as L-xylose, read-out: H729 Colorectal): 37 µM
IC50 [4, 9]: > 100 µM
IC50 [5, 9]: 67 µM
IC50 ([6]; listed as L-xylose): 30 µM
IC50 (NCI/ADR-RES; listed as L-xylose): 50 µM
IC50 [7, 9]: 15 µM

CON(C(C)CC(c1ccccc1)c1c(O)c2ccccc2oc1=O)C1OCC(O)C(O)C1O (mixture of isomers) [WARF Analog 6]
IC50 ([8]; Table 3 summary of most active compounds, IC50, listed as D-lyxose, read-out: SF268 Giloblast): 39 µM
level of activity, in words ([1]; HCT 15 colorectal cell lines, compared with all the neoglycosides tested): highest level of activity
IC50 ([1]; listed as D-lyxose): 7 µM
IC50 [2, 10]: 47 µM
IC50 ([3]; Table 3 summary of most active compounds, IC50, listed as D-lyxose, read-out: H729 Colorectal): 52 µM
IC50 [4, 10]: > 100 µM
IC50 [5, 10]: 76 µM
IC50 (NCI/ADR-RES; listed as D-lyxose): 57 µM

CON(C(C)CC(c1ccccc1)c1c(O)c2ccccc2oc1=O)C1OCC(O)C(O)C1O (mixture of isomers) [WARF Analog 9]
IC50 ([8]; Table 3 summary of most active compounds, IC50, listed as D-xylose, read-out: SF268 Giloblast): 37 µM
IC50 ([1]; listed as D-xylose): 11 µM
IC50 [2, 11]: 52 µM
IC50 ([3]; Table 3 summary of most active compounds, IC50, listed as D-xylose, read-out: H729 Colorectal): 43 µM
IC50 [4, 11]: 99 µM
IC50 [5, 11]: 40 µM
IC50 ([6]; listed as D-xylose): 27 µM
IC50 (NCI/ADR-RES; listed as D-xylose): 38 µM
IC50 [7, 11]: 12 µM

CON(C(C)CC(c1ccccc1)c1c(O)c2ccccc2oc1=O)C1CC(O)C(O)CO1 (mixture of isomers) [WARF Analog 11]
IC50 [8, 12]: > 100 µM
IC50 [1]: 13 µM
IC50 [2, 13]: > 100 µM
IC50 [3, 14]: > 100 µM
IC50 [4, 13]: > 100 µM
IC50 [5, 13]: > 100 µM
IC50 [6]: 92 µM
IC50 (NCI/ADR-RES): > 100 µM
IC50 [7, 13]: 78 µM

CON(C(C)CC(c1ccccc1)c1c(O)c2ccccc2oc1=O)C1OC(C)C(O)C(O)C1O (mixture of isomers) [WARF Analog 12]
IC50 ([8]; Table 3 summary of most active compounds, IC50, listed as L-fucose, read-out: SF268 Giloblast): 89 µM
IC50 ([1]; listed as L-fucose): 9 µM
IC50 ([2]; Table 3 summary of most active compounds, listed as L-fucose): 81 µM
IC50 ([3]; Table 3 summary of most active compounds, IC50, listed as L-fucose, read-out: H729 Colorectal): 80 µM
IC50 [4, 13]: > 100 µM
IC50 [5, 13]: > 100 µM
IC50 [6]: > 100 µM
IC50 (NCI/ADR-RES): > 100 µM
IC50 [7, 13]: > 100 µM

CON(C(C)CC(c1ccccc1)c1c(O)c2ccccc2oc1=O)C1OCC(O)C(O)C1O (mixture of isomers) [WARF Analog 15]
IC50 ([8]; Table 3 summary of most active compounds, IC50, listed as L-arabinose, read-out: SF268 Giloblast): 69 µM
IC50 ([1]; listed as L-arabinose): 49 µM
IC50 [2, 15]: 76 µM
IC50 ([3]; Table 3 summary of most active compounds, IC50, listed as L-arabinose, read-out: H729 Colorectal): 97 µM
IC50 [4, 15]: > 100 µM
IC50 [5, 15]: 48 µM
IC50 ([6]; listed as L-arabinose): 51 µM
IC50 (NCI/ADR-RES; listed as L-arabinose): 68 µM
IC50 [7, 15]: 79 µM

CON(C(C)CC(c1ccccc1)c1c(O)c2ccccc2oc1=O)C1OCC(O)C(O)C1O (mixture of isomers) [WARF Analog 22]
IC50 ([8]; Table 3 summary of most active compounds, IC50, listed as D-ribose, read-out: SF268 Giloblast): 72 µM
IC50 ([1]; listed as D-ribose): 27 µM
IC50 [2, 16]: 60 µM
IC50 ([3]; Table 3 summary of most active compounds, IC50, listed as D-ribose, read-out: H729 Colorectal): 77 µM
IC50 [4, 16]: > 100 µM
IC50 [5, 16]: > 100 µM
IC50 ([6]; listed as D-ribose): 44 µM
IC50 (NCI/ADR-RES; listed as D-ribose): 66 µM
IC50 [7, 16]: 41 µM

CON(C(C)CC(c1ccccc1)c1c(O)c2ccccc2oc1=O)C1OCC(O)C(O)C1O (mixture of isomers) [WARF Analog 25]
IC50 ([8]; Table 3 summary of most active compounds, IC50, listed as L-ribose, read-out: SF268 Giloblast): > 100 µM
IC50 ([1]; listed as L-ribose): 37 µM
IC50 [2, 17]: 60 µM
IC50 ([3]; Table 3 summary of most active compounds, IC50, listed as L-ribose, read-out: H729 Colorectal): 72 µM
IC50 [4, 17]: > 100 µM
IC50 [5, 17]: 72 µM
IC50 (NCI/ADR-RES; listed as L-ribose): 62 µM
IC50 [7, 17]: 45 µM

CON(C(C)CC(c1ccccc1)c1c(O)c2ccccc2oc1=O)C1OC(C)C(O)C(O)C1O (mixture of isomers) [WARF Analog 50]
IC50 ([8]; Table 3 summary of most active compounds, IC50, listed as 6-deoxy-D-glucose, read-out: SF268 Giloblast): > 100 µM
IC50 ([1]; listed as 6-deoxy-D-glucose): 14 µM
IC50 ([2]; Table 3 summary of most active compounds, listed as 6-deoxy-D-glucose): > 100 µM
IC50 ([3]; Table 3 summary of most active compounds, IC50, listed as 6-deoxy-D-glucose, read-out: H729 Colorectal): > 100 µM
IC50 [4, 13]: > 100 µM
IC50 [5, 13]: > 100 µM
IC50 (NCI/ADR-RES): > 100 µM

CON(C(C)CC(c1ccccc1)c1c(O)c2ccccc2oc1=O)C1O[C@H](COCc2ccccc2)[C@@H](OCc2ccccc2)[C@@H]1OCc1ccccc1 (some centres unmarked) [WARF Analog 42]
IC50 [8, 12]: 20 µM
IC50 [1]: 11 µM
IC50 [2, 13]: 27 µM
IC50 [3, 14]: 19 µM
IC50 [5, 13]: 27 µM
IC50 [6]: 19 µM
IC50 (NCI/ADR-RES): 20 µM
IC50 [7, 13]: 29 µM

CC(=O)CC(c1ccccc1)c1c(O)c2ccccc2oc1=O (centres unmarked) [WARF Analog A, 4-hydroxy-3-(3-oxo-1-phenylbutyl)-2H-1-benzopyran-2-one, reference compound]
IC50 ([8]; Homo sapiens, SF-268, read-out: SF268 Giloblast): 765 µM
IC50 ([1]; Homo sapiens, HCT-15): 543 µM
IC50 ([2]; Homo sapiens, SK-OV-3, Table 3 summary of most active compounds): 393 µM
IC50 ([3]; Homo sapiens, HT-29, read-out: H729 Colorectal): 735 µM
IC50 ([4]; Homo sapiens, NCI-H460, Table 3 summary of most active compounds): 557 µM
IC50 ([5]; Homo sapiens, A549, Table 3 summary of most active compounds): 781 µM
IC50 (NCI/ADR-RES; Homo sapiens): > 100 µM
IC50 ([7]; Homo sapiens, MCF7, Table 3 summary of most active compounds): 301 µM
